Source: patent publication US20230085307A1, “PYRIDAZINONE COMPOUND AND HERBICIDE” (NISSAN CHEMICAL CORPORATION, priority 2019, published 2023)

Legend:
late watergrass = assay: Test Example 1: herbicidal activity, application before weed generation under submerged conditions (Table 16, symbol A); type: in vivo, late watergrass (Echinochloa oryzicola); settings: 320 g/ha applied herbicide
Method in brief: (§1)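 Emulsion formulation, water-diluted to set dose, was put onto the flooded surface (4 cm depth, alluvial soil) the same day weeds were sown and 2.5-leaf rice transplanted. After 3 weeks at 25-30 °C under glass, each species was rated 0 (≤5% kill) to 5 (≥90% kill).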

Japanese bulrush = assay: Test Example 1: herbicidal activity, application before weed generation under submerged conditions (Table 16, symbol B); type: in vivo, Japanese bulrush (Schoenoplectus juncoides); settings: 320 g/ha applied herbicide
Method in brief: as §1

oval-leafed pondweed = assay: Test Example 1: herbicidal activity, application before weed generation under submerged conditions (Table 16, symbol C); type: in vivo, oval-leafed pondweed (Monochoria vaginalis); settings: 320 g/ha applied herbicide
Method in brief: as §1

southern crabgrass [1] = assay: Test Example 5: herbicidal effect by foliage application, plastic box (Table 20, symbol F); type: in vivo, southern crabgrass (Digitaria ciliaris)
Method in brief: (§2)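 Foliar spray test: emulsion formulation diluted in water to a set application rate, sprayed onto 14-day-old plants raised in diluvial soil at 25° C to 30° C under glass. Both herbicidal effect and crop effect rated visually three weeks later.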

green foxtail [2] = assay: Test Example 5: herbicidal effect by foliage application, plastic box (Table 20, symbol G); type: in vivo, green foxtail (Setaria viridis)
Method in brief: as §2

barnyard grass [3] = assay: Test Example 5: herbicidal effect by foliage application, plastic box (Table 20, symbol H); type: in vivo, barnyard grass (Echinochloa crus-galli)
Method in brief: as §2

wild oat [4] = assay: Test Example 5: herbicidal effect by foliage application, plastic box (Table 20, symbol I); type: in vivo, wild oat (Avena fatua)
Method in brief: as §2

blackgrass [5] = assay: Test Example 5: herbicidal effect by foliage application, plastic box (Table 20, symbol J); type: in vivo, blackgrass (Alopecurus myosuroides)
Method in brief: as §2

Italian ryegrass [6] = assay: Test Example 5: herbicidal effect by foliage application, plastic box (Table 20, symbol K); type: in vivo, Italian ryegrass (Lolium multiflorum)
Method in brief: as §2

windgrass [7] = assay: Test Example 5: herbicidal effect by foliage application, plastic box (Table 20, symbol L); type: in vivo, windgrass (Apera spica-venti)
Method in brief: as §2

velvetleaf [8] = assay: Test Example 5: herbicidal effect by foliage application, plastic box (Table 20, symbol M); type: in vivo, velvetleaf (Abutilon theophrasti)
Method in brief: as §2

redroot pigweed [9] = assay: Test Example 5: herbicidal effect by foliage application, plastic box (Table 20, symbol N); type: in vivo, redroot pigweed (Amaranthus retroflexus)
Method in brief: as §2

lambsquarters [10] = assay: Test Example 5: herbicidal effect by foliage application, plastic box (Table 20, symbol O); type: in vivo, lambsquarters (Chenopodium album)
Method in brief: as §2

chickweed [11] = assay: Test Example 5: herbicidal effect by foliage application, plastic box (Table 20, symbol P); type: in vivo, common chickweed (Stellaria media)
Method in brief: as §2

false cleavers = assay: Test Example 5: herbicidal effect by foliage application, plastic box (Table 20, symbol Q); type: in vivo, false cleavers (Galium spurium)
Method in brief: as §2

persian speedwell [12] = assay: Test Example 5: herbicidal effect by foliage application, plastic box (Table 20, symbol R); type: in vivo, Persian speedwell (Veronica persica)
Method in brief: as §2

barnyard grass [13] = assay: Test Example 3: herbicidal effect by foliage application, Wagner pot (Table 18, symbol H); type: in vivo, barnyard grass (Echinochloa crus-galli); settings: 320 g/ha
Method in brief: (§3)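 Plants were sown in alluvial soil held under 0.1–0.5 cm standing water and grown 14 days in a greenhouse at 25–30 °C. An emulsifiable formulation, water-diluted to the set dose, was then sprayed onto the foliage, and effects were scored three weeks later using previously defined criteria.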

Chinese sprangletop = assay: Test Example 3: herbicidal effect by foliage application, Wagner pot (Table 18, symbol D); type: in vivo, chinese sprangletop (Leptochloa chinensis); settings: 320 g/ha
Method in brief: as §3

rice flat sedge = assay: Test Example 3: herbicidal effect by foliage application, Wagner pot (Table 18, symbol E); type: in vivo, rice flat sedge (Cyperus iria); settings: 320 g/ha
Method in brief: as §3

southern crabgrass [14] = assay: Test Example 4: herbicidal effect by soil treatment (Table 19, symbol F); type: in vivo, southern crabgrass (Digitaria ciliaris); settings: amount of applied herbicide 320 g/ha
Method in brief: (§4)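 Step 1: sow seeds in sterilized diluvial soil, cover ~1.5 cm. Step 2: spray diluted emulsion onto soil surface at predetermined rate. Step 3: greenhouse, 25–30° C, three weeks. Step 4: grade effect on each plant by earlier criteria.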

green foxtail [15] = assay: Test Example 4: herbicidal effect by soil treatment (Table 19, symbol G); type: in vivo, green foxtail (Setaria viridis); settings: amount of applied herbicide 320 g/ha
Method in brief: as §4

barnyard grass [16] = assay: Test Example 4: herbicidal effect by soil treatment (Table 19, symbol H); type: in vivo, barnyard grass (Echinochloa crus-galli); settings: amount of applied herbicide 320 g/ha
Method in brief: as §4

wild oat [17] = assay: Test Example 4: herbicidal effect by soil treatment (Table 19, symbol I); type: in vivo, wild oat (Avena fatua); settings: amount of applied herbicide 320 g/ha
Method in brief: as §4

blackgrass [18] = assay: Test Example 4: herbicidal effect by soil treatment (Table 19, symbol J); type: in vivo, blackgrass (Alopecurus myosuroides); settings: amount of applied herbicide 320 g/ha
Method in brief: as §4

Italian ryegrass [19] = assay: Test Example 4: herbicidal effect by soil treatment (Table 19, symbol K); type: in vivo, Italian ryegrass (Lolium multiflorum); settings: amount of applied herbicide 320 g/ha
Method in brief: as §4

windgrass [20] = assay: Test Example 4: herbicidal effect by soil treatment (Table 19, symbol L); type: in vivo, windgrass (Apera spica-venti); settings: amount of applied herbicide 320 g/ha
Method in brief: as §4

velvetleaf [21] = assay: Test Example 4: herbicidal effect by soil treatment (Table 19, symbol M); type: in vivo, velvetleaf (Abutilon theophrasti); settings: amount of applied herbicide 320 g/ha
Method in brief: as §4

redroot pigweed [22] = assay: Test Example 4: herbicidal effect by soil treatment (Table 19, symbol N); type: in vivo, redroot pigweed (Amaranthus retroflexus); settings: amount of applied herbicide 320 g/ha
Method in brief: as §4

lambsquarters [23] = assay: Test Example 4: herbicidal effect by soil treatment (Table 19, symbol O); type: in vivo, lambsquarters (Chenopodium album); settings: amount of applied herbicide 320 g/ha
Method in brief: as §4

chickweed [24] = assay: Test Example 4: herbicidal effect by soil treatment (Table 19, symbol P); type: in vivo, common chickweed (Stellaria media); settings: amount of applied herbicide 320 g/ha
Method in brief: as §4

persian speedwell [25] = assay: Test Example 4: herbicidal effect by soil treatment (Table 19, symbol R); type: in vivo, Persian speedwell (Veronica persica); settings: amount of applied herbicide 320 g/ha
Method in brief: as §4

[26] = foliage application, 320 g/ha, three weeks after application
[27] = amount of applied herbicide 320 g/ha, foliage application after 14-day growth, evaluated three weeks after application

Compound: CCCCCCOc1ccc(-c2sc3ccccc3c2-c2c(OC(=O)CCC)c(C)nn(C)c2=O)cc1 [1-029]
- Herbicidal effect on A: late watergrass (grade 0-5) (late watergrass): 0 (Herbicidal rate of 5% or less (almost no effect))
- Herbicidal effect on B: Japanese bulrush (grade 0-5) (Japanese bulrush): 1 (Herbicidal rate of 5% or more and less than 20%)
- Herbicidal effect on C: oval-leafed pondweed (grade 0-5) (oval-leafed pondweed): 2 (Herbicidal rate of 20% or more and less than 40%)
- herbicidal effect grade, F: southern crabgrass (southern crabgrass [1]; [26]): 0 (Herbicidal rate of 5% or less (almost no effect))
- herbicidal effect grade, G: green foxtail (green foxtail [2]; [26]): 0 (Herbicidal rate of 5% or less (almost no effect))
- herbicidal effect grade, H: barnyard grass (barnyard grass [3]; [26]): 0 (Herbicidal rate of 5% or less (almost no effect))
- herbicidal effect grade, I: wild oat (wild oat [4]; [26]): 0 (Herbicidal rate of 5% or less (almost no effect))
- herbicidal effect grade, J: blackgrass (blackgrass [5]; [26]): 0 (Herbicidal rate of 5% or less (almost no effect))
- herbicidal effect grade, K: Italian ryegrass (Italian ryegrass [6]; [26]): 0 (Herbicidal rate of 5% or less (almost no effect))
- herbicidal effect grade, L: windgrass (windgrass [7]; [26]): 0 (Herbicidal rate of 5% or less (almost no effect))
- herbicidal effect grade, M: velvetleaf (velvetleaf [8]; [26]): 2 (Herbicidal rate of 20% or more and less than 40%)
- herbicidal effect grade, N: redroot pigweed (redroot pigweed [9]; [26]): 4 (Herbicidal rate of 70% or more and less than 90%)
- herbicidal effect grade, O: lambsquarters (lambsquarters [10]; [26]): 2 (Herbicidal rate of 20% or more and less than 40%)
- herbicidal effect grade, P: chickweed (chickweed [11]; [26]): 5 (Herbicidal rate of 90% or more (almost completely withered))
- herbicidal effect grade, Q: false cleavers (false cleavers; [26]): 1 (Herbicidal rate of 5% or more and less than 20%)
- herbicidal effect grade, R: persian speedwell (persian speedwell [12]; [26]): 0 (Herbicidal rate of 5% or less (almost no effect))

Compound: CCCC(=O)Oc1c(C)nn(C)c(=O)c1-c1c(-c2ccc(F)cc2)sc2cc(F)c(F)cc12 [5-002]
- herbicidal effect on barnyard grass (H) (barnyard grass [13]): 4 (Herbicidal rate of 70% or more and less than 90%)
- herbicidal effect on Chinese sprangletop (D) (Chinese sprangletop): 3 (Herbicidal rate of 40% or more and less than 70%)
- herbicidal effect on rice flat sedge (E) (rice flat sedge): 0 (Herbicidal rate of 5% or less (almost no effect))
- F: southern crabgrass, herbicidal effect grade (southern crabgrass [14]): 0 (Herbicidal rate of 5% or less (almost no effect))
- G: green foxtail, herbicidal effect grade (green foxtail [15]): 4 (Herbicidal rate of 70% or more and less than 90%)
- H: barnyard grass, herbicidal effect grade (barnyard grass [16]): 3 (Herbicidal rate of 40% or more and less than 70%)
- I: wild oat, herbicidal effect grade (wild oat [17]): 3 (Herbicidal rate of 40% or more and less than 70%)
- J: blackgrass, herbicidal effect grade (blackgrass [18]): 2 (Herbicidal rate of 20% or more and less than 40%)
- K: Italian ryegrass, herbicidal effect grade (Italian ryegrass [19]): 5 (Herbicidal rate of 90% or more (almost completely withered))
- L: windgrass, herbicidal effect grade (windgrass [20]): 5 (Herbicidal rate of 90% or more (almost completely withered))
- M: velvetleaf, herbicidal effect grade (velvetleaf [21]): 3 (Herbicidal rate of 40% or more and less than 70%)
- N: redroot pigweed, herbicidal effect grade (redroot pigweed [22]): 5 (Herbicidal rate of 90% or more (almost completely withered))
- O: lambsquarters, herbicidal effect grade (lambsquarters [23]): 5 (Herbicidal rate of 90% or more (almost completely withered))
- P: chickweed, herbicidal effect grade (chickweed [24]): 4 (Herbicidal rate of 70% or more and less than 90%)
- R: persian speedwell, herbicidal effect grade (persian speedwell [25]): 5 (Herbicidal rate of 90% or more (almost completely withered))
- Herbicidal effect by foliage application, F: southern crabgrass (southern crabgrass [1]; [27]): 5 (Herbicidal rate of 90% or more (almost completely withered))
- Herbicidal effect by foliage application, G: green foxtail (green foxtail [2]; [27]): 5 (Herbicidal rate of 90% or more (almost completely withered))
- Herbicidal effect by foliage application, H: barnyard grass (barnyard grass [3]; [27]): 4 (Herbicidal rate of 70% or more and less than 90%)
- Herbicidal effect by foliage application, I: wild oat (wild oat [4]; [27]): 4 (Herbicidal rate of 70% or more and less than 90%)
- Herbicidal effect by foliage application, J: blackgrass (blackgrass [5]; [27]): 4 (Herbicidal rate of 70% or more and less than 90%)
- Herbicidal effect by foliage application, K: Italian ryegrass (Italian ryegrass [6]; [27]): 5 (Herbicidal rate of 90% or more (almost completely withered))
- Herbicidal effect by foliage application, L: windgrass (windgrass [7]; [27]): 5 (Herbicidal rate of 90% or more (almost completely withered))
- Herbicidal effect by foliage application, M: velvetleaf (velvetleaf [8]; [27]): 5 (Herbicidal rate of 90% or more (almost completely withered))
- Herbicidal effect by foliage application, N: redroot pigweed (redroot pigweed [9]; [27]): 5 (Herbicidal rate of 90% or more (almost completely withered))
- Herbicidal effect by foliage application, O: lambsquarters (lambsquarters [10]; [27]): 5 (Herbicidal rate of 90% or more (almost completely withered))
- Herbicidal effect by foliage application, P: chickweed (chickweed [11]; [27]): 5 (Herbicidal rate of 90% or more (almost completely withered))
- Herbicidal effect by foliage application, Q: false cleavers (false cleavers; [27]): 5 (Herbicidal rate of 90% or more (almost completely withered))
- Herbicidal effect by foliage application, R: persian speedwell (persian speedwell [12]; [27]): 5 (Herbicidal rate of 90% or more (almost completely withered))
